These results are taken from ChEMBL document CHEMBL1697781, “Assessment of the health effects of chemicals in humans: II. Construction of an adverse effects database for QSAR modeling” (Curr Drug Discov Technol, 2004).

Common to all, as to settings: human
Series [1] relates to Hepatotoxicity. Briefly: FDA HLAED, liver enzyme composite activity.
For series [2], the system named is Hepatotoxicity. Briefly: FDA HLAED, lactate dehydrogenase (LDH) increase.
Series [3] deals with Hepatotoxicity. Briefly: FDA HLAED, alkaline phosphatase increase.
Series [4] concerns Hepatotoxicity. Briefly: FDA HLAED, serum glutamic pyruvic transaminase (SGPT) increase.
The subject of series [5] is Hepatotoxicity. Briefly: FDA HLAED, serum glutamic oxaloacetic transaminase (SGOT) increase.
For series [6], the system named is Hepatotoxicity. Briefly: FDA HLAED, gamma-glutamyl transferase (GGT) increase.
Throughout, for GGT Increase - Index Value: reference of the scale not given here.
Throughout, for LDH Increase - Index Value: reference of the scale not given here.

`C[C@](N)(Cc1ccc(O)cc1)C(=O)O` [METYROSINE]: in the series on Hepatotoxicity [1] (Liver), the “Composite Activity - Active” value was 0, the “Composite Activity - Marginal” value was 0 and the “Composite Activity - Score” value is listed as “Inactive”. Moreover, in the series on Hepatotoxicity [2], the “LDH Increase - Activity Score” value is given as “Inactive”, the “LDH Increase - Index Value” came out at 0 and the “LDH Increase - Number of Reports” value is recorded as below 4. Further, in the series with Hepatotoxicity [3], the “Alkaline Phosphatase Increase - Activity Score” value was “Inactive”, the “Alkaline Phosphatase Increase - Index Value” was 0 and the “Alkaline Phosphatase Increase - Number of Reports” value is reported as below 4. Besides, in the series with Hepatotoxicity [4], the “SGPT Increase - Activity Score” value was “Inactive”, the “SGPT Increase - Index Value” amounted to 0 and the “SGPT Increase - Number of Reports” value is on record as below 4. Besides, in the series with Hepatotoxicity [5], the “SGOT Increase - Activity Score” value was “Inactive”, the “SGOT Increase - Index Value” is given as 0 and the “SGOT Increase - Number of Reports” value was below 4. For the same compound, in the series on Hepatotoxicity [6], the “GGT Increase - Activity Score” value was “Inactive”, the “GGT Increase - Index Value” came out at 0 and the “GGT Increase - Number of Reports” value is on record as below 4.
Regarding `Cc1cccc(C)c1OCC(C)N` (stereo unspecified) [MEXILETINE], in the series on Hepatotoxicity [1] (Liver), the “Composite Activity - Active” value is listed as 1, the “Composite Activity - Marginal” value was 2 and the “Composite Activity - Score” value is on record as “Inactive”. Further, in the series with Hepatotoxicity [2], the “LDH Increase - Activity Score” value is given as “Inactive”, the “LDH Increase - Index Value” stood at 2 and the “LDH Increase - Number of Reports” value is “>= 4”. In addition, in the series on Hepatotoxicity [3], the “Alkaline Phosphatase Increase - Activity Score” value was “Marginally Active”, the “Alkaline Phosphatase Increase - Index Value” is 3.1 and the “Alkaline Phosphatase Increase - Number of Reports” value is reported as “>= 4”. Besides, in the series with Hepatotoxicity [4], the “SGPT Increase - Activity Score” value is on record as “Marginally Active”, the “SGPT Increase - Index Value” stood at 3.6 and the “SGPT Increase - Number of Reports” value is “>= 4”. For the same compound, in the series on Hepatotoxicity [5], the “SGOT Increase - Activity Score” value is on record as “Active”, the “SGOT Increase - Index Value” stood at 6.7 and the “SGOT Increase - Number of Reports” value is “>= 4”. Besides, in the series on Hepatotoxicity [6], the “GGT Increase - Activity Score” value is recorded as “Inactive”, the “GGT Increase - Index Value” was 0 and the “GGT Increase - Number of Reports” value was below 4.
As for `CC1(C)S[C@@H]2[C@H](NC(=O)[C@H](NC(=O)N3CCN(S(C)(=O)=O)C3=O)c3ccccc3)C(=O)N2[C@H]1C(=O)O` [MEZLOCILLIN], in the series with Hepatotoxicity [1] (Liver), the “Composite Activity - Active” value is recorded as 0, the “Composite Activity - Marginal” value was 0 and the “Composite Activity - Score” value is recorded as “Inactive”. In the series on Hepatotoxicity [2], the “LDH Increase - Activity Score” value is “Inactive”, the “LDH Increase - Index Value” is listed as 0 and the “LDH Increase - Number of Reports” value was below 4. In the series on Hepatotoxicity [3], the “Alkaline Phosphatase Increase - Activity Score” value was “Inactive”, the “Alkaline Phosphatase Increase - Index Value” is 1.9 and the “Alkaline Phosphatase Increase - Number of Reports” value is given as below 4. In the series on Hepatotoxicity [4], the “SGPT Increase - Activity Score” value is reported as “Inactive”, the “SGPT Increase - Index Value” came out at 0 and the “SGPT Increase - Number of Reports” value is given as below 4. In addition, in the series with Hepatotoxicity [5], the “SGOT Increase - Activity Score” value is “Inactive”, the “SGOT Increase - Index Value” was 0 and the “SGOT Increase - Number of Reports” value was below 4. Moreover, in the series on Hepatotoxicity [6], the “GGT Increase - Activity Score” value is recorded as “Inactive”, the “GGT Increase - Index Value” came to 0 and the “GGT Increase - Number of Reports” value is below 4.
For the compound `Cc1ncc2n1-c1ccc(Cl)cc1C(c1ccccc1F)=NC2` [MIDAZOLAM], in the series with Hepatotoxicity [1], the “Composite Activity - Active” value is listed as 0, the “Composite Activity - Marginal” value is recorded as 0 and the “Composite Activity - Score” value is given as “Inactive”. Further, in the series with Hepatotoxicity [2], the “LDH Increase - Activity Score” value was “Inactive”, the “LDH Increase - Index Value” came out at 0 and the “LDH Increase - Number of Reports” value is recorded as below 4. For the same compound, in the series on Hepatotoxicity [3], the “Alkaline Phosphatase Increase - Activity Score” value was “Inactive”, the “Alkaline Phosphatase Increase - Index Value” was 0.2 and the “Alkaline Phosphatase Increase - Number of Reports” value is reported as below 4. In addition, in the series with Hepatotoxicity [4], the “SGPT Increase - Activity Score” value is “Inactive”, the “SGPT Increase - Index Value” was found to be 0.2 and the “SGPT Increase - Number of Reports” value was below 4. Further, in the series on Hepatotoxicity [5], the “SGOT Increase - Activity Score” value is listed as “Inactive”, the “SGOT Increase - Index Value” is 0.2 and the “SGOT Increase - Number of Reports” value is listed as below 4. Also, in the series on Hepatotoxicity [6], the “GGT Increase - Activity Score” value is “Inactive”, the “GGT Increase - Index Value” is on record as 0 and the “GGT Increase - Number of Reports” value is below 4.
With `COc1ccc(OC)c(C(O)CNC(=O)CN)c1` (stereo unspecified) [MIDODRINE], in the series with Hepatotoxicity [1], the “Composite Activity - Active” value amounted to 0, the “Composite Activity - Marginal” value came to 0 and the “Composite Activity - Score” value is on record as “Inactive”. In the series with Hepatotoxicity [2], the “LDH Increase - Activity Score” value is listed as “Inactive”, the “LDH Increase - Index Value” is reported as 0 and the “LDH Increase - Number of Reports” value is recorded as below 4. Further, in the series with Hepatotoxicity [3], the “Alkaline Phosphatase Increase - Activity Score” value is reported as “Inactive”, the “Alkaline Phosphatase Increase - Index Value” is given as 0 and the “Alkaline Phosphatase Increase - Number of Reports” value is given as below 4. Further, in the series with Hepatotoxicity [4], the “SGPT Increase - Activity Score” value was “Inactive”, the “SGPT Increase - Index Value” is reported as 0 and the “SGPT Increase - Number of Reports” value is below 4. For the same compound, in the series on Hepatotoxicity [5], the “SGOT Increase - Activity Score” value is “Inactive”, the “SGOT Increase - Index Value” came to 0 and the “SGOT Increase - Number of Reports” value is below 4. Moreover, in the series with Hepatotoxicity [6], the “GGT Increase - Activity Score” value is on record as “Inactive”, the “GGT Increase - Index Value” worked out at 0 and the “GGT Increase - Number of Reports” value is recorded as below 4.
Turning to `Nc1cc(N2CCCCC2)nc(N)[n+]1[O-]` [MINOXIDIL], in the series with Hepatotoxicity [1], the “Composite Activity - Active” value was determined as 0, the “Composite Activity - Marginal” value stood at 0 and the “Composite Activity - Score” value is “Inactive”. Besides, in the series with Hepatotoxicity [2], the “LDH Increase - Activity Score” value is reported as “Inactive”, the “LDH Increase - Index Value” is 0 and the “LDH Increase - Number of Reports” value is recorded as below 4. Also, in the series on Hepatotoxicity [3], the “Alkaline Phosphatase Increase - Activity Score” value is listed as “Inactive”, the “Alkaline Phosphatase Increase - Index Value” came out at 0.7 and the “Alkaline Phosphatase Increase - Number of Reports” value is reported as “>= 4”. Besides, in the series on Hepatotoxicity [4], the “SGPT Increase - Activity Score” value was “Inactive”, the “SGPT Increase - Index Value” is 1.1 and the “SGPT Increase - Number of Reports” value is “>= 4”. In the series on Hepatotoxicity [5], the “SGOT Increase - Activity Score” value is “Inactive”, the “SGOT Increase - Index Value” amounted to 0.9 and the “SGOT Increase - Number of Reports” value is given as “>= 4”. Further, in the series with Hepatotoxicity [6], the “GGT Increase - Activity Score” value is “Inactive”, the “GGT Increase - Index Value” was found to be 0.3 and the “GGT Increase - Number of Reports” value is on record as below 4.
Take `CN1CCN2c3ncccc3Cc3ccccc3C2C1` (stereo unspecified) [MIRTAZAPINE]: in the series with Hepatotoxicity [1], the “Composite Activity - Active” value is listed as 1, the “Composite Activity - Marginal” value is given as 2 and the “Composite Activity - Score” value was “Inactive”. Besides, in the series with Hepatotoxicity [2], the “LDH Increase - Activity Score” value is on record as “Inactive”, the “LDH Increase - Index Value” is given as 0.9 and the “LDH Increase - Number of Reports” value is reported as below 4. In addition, in the series on Hepatotoxicity [3], the “Alkaline Phosphatase Increase - Activity Score” value is reported as “Inactive”, the “Alkaline Phosphatase Increase - Index Value” was determined as 0.9 and the “Alkaline Phosphatase Increase - Number of Reports” value is below 4. Further, in the series with Hepatotoxicity [4], the “SGPT Increase - Activity Score” value was “Active”, the “SGPT Increase - Index Value” came to 6.4 and the “SGPT Increase - Number of Reports” value is recorded as “>= 4”. For the same compound, in the series with Hepatotoxicity [5], the “SGOT Increase - Activity Score” value was “Marginally Active”, the “SGOT Increase - Index Value” is 3.6 and the “SGOT Increase - Number of Reports” value is recorded as “>= 4”. In the series with Hepatotoxicity [6], the “GGT Increase - Activity Score” value was “Marginally Active”, the “GGT Increase - Index Value” came to 3.6 and the “GGT Increase - Number of Reports” value is below 4.
